# Data from US20130237556A1, “BERBERINE ALKALOID AS A MEDICAMENT FOR PREVENTION AND TREATMENT OF NEURAL DISEASE” (HONG KONG BAPTIST UNIVERSITY, priority 2012, published 2013).
# “Also recorded” adds a separate entry of the source.
# Assays:
# TgCRND8 mice [1] = test: Thioflavin S staining of fibrillar parenchymal and cerebrovascular (CAA) Aβ; format: in vivo, mouse; conditions: for reduction in ThioS-positive fibrillar Aβ: relative to untreated control TgCRND8
# TgCRND8 mice [2] = test: Morris water maze (visible platform, hidden platform, probe trials); format: in vivo, mouse
# TgCRND8 mice [3] = test: Microgliosis (Iba-1 burden) and astrocytosis (GFAP burden) immunohistochemistry; format: in vivo, mouse
# N2a-SwedAPP cells [4] = test: MTT toxicity assay; format: cell-based, mouse; conditions: up to 25 μM BBR, 24 h
# Description: N2a-SweAPP cells are mouse neuroblastoma N2a cells stably transfected with human Swedish mutant APP695, and were gifts from Dr. Gopal Thinakaran (University of Chicago, Chicago Ill.). Cells were maintained in Dulbecco's modified Eagle's medium (DMEM) (Invitrogen, Carlsbad, Calif.) supplemented with 10% fetal bovine serum, penicillin and streptomycin and 200 μg/mL G418 (Invitrogen). Cells were cultured either in multiwell dishes or on 60 mm tissue culture plates in DMEM 10% with FBS Cell cultures were incubated at 37° C. in a humid 5% CO2/ 95% air environment. After cells were grown close to confluence, they were treated with/without different concentrations of BBR in DMEM (1% FBS) for 24 h. […] For the concentration-dependent treatment, cells were treated with serial dilutions of BBR ranging from 0-20 μM for 2 or 12 h prior to lysis with ice-cold RIPA buffer (20 mM Tris, pH 7.4, 150 mM NaCl, 1% triton-X, 0.5% sodium deoxycholate, EDTA) containing protease inhibitor cocktails (EMD chemicals, Philadelphia, Pa.) to find the optimal range of BBR. For the time-dependent application, cells were treated with a 20 μM concentration of BBR and incubated at time points ranging from 0-180 min prior to lysis. For immunofluorescent staining, N2a-SwedAPP cells were seeded on glass cover slips at a density of 0.5×10^5 viable cells per well in a 24-well plate. […]
# N2a-SwedAPP cells [5] = test: Immunofluorescence of p-APP in endosomal compartments (Rab5); format: cell-based, mouse; conditions: 20 μM BBR, 3 h
# Description: N2a-SweAPP cells are mouse neuroblastoma N2a cells stably transfected with human Swedish mutant APP695, and were gifts from Dr. Gopal Thinakaran (University of Chicago, Chicago Ill.). Cells were maintained in Dulbecco's modified Eagle's medium (DMEM) (Invitrogen, Carlsbad, Calif.) supplemented with 10% fetal bovine serum, penicillin and streptomycin and 200 μg/mL G418 (Invitrogen). Cells were cultured either in multiwell dishes or on 60 mm tissue culture plates in DMEM 10% with FBS Cell cultures were incubated at 37° C. in a humid 5% CO2/ 95% air environment. After cells were grown close to confluence, they were treated with/without different concentrations of BBR in DMEM (1% FBS) for 24 h. […]
# For higher resolution microscopy, images were acquired using an Olympus IX70 Delta Vision microscopy system (Applied Precision, Issaquah, Wash.) with a 100×1.5 numerical aperture oil immersion lens. […] Subsequently serial Z-stacks of fluorescence images at 0.2-μm interval were acquired and deconvolved via a controlled iterative algorithm to generate high-resolution images of cells using […] (Applied Precision).
# Aβ1-42 fibril formation = Aβ1-42 fibril formation (Homo sapiens, UniProt P05067); test: Inhibition of Aβ1-42 fibril formation in vitro; format: biochemical
# TgCRND8 mice [6] = test: Aβ1-40 and Aβ1-42 sandwich ELISA in SDS and formic acid brain extracts; format: in vivo, mouse
# [7] = BBR-treated TgCRND8, dose not stated (discussion)
# [8] = low dose BBR, SDS and FA fractions
# Aβ1-42 fibril formation, sequence (P05067 672-713 limits assumed): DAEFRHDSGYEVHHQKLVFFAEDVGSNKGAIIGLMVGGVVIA
smiles,measurement,setting,value
"COc1ccc2cc3[n+](cc2c1OC)CCc1cc2c(cc1-3)OCO2 [BBR, 5,6-dihydro-9,10-dimethoxybenzo[g]-1,3-benzodioxolo[5,6-a]quinolizinium]","ThioS-labeled blood vessels (CAA), cortical area covered",TgCRND8 mice [1]; 25 mg/Kg/d (vehicle 1.44±0.17%),0.70% ±0.11
same,reduction in ThioS-positive fibrillar Aβ,TgCRND8 mice [1]; 25 mg/kg/d,40%
same,"ThioS-labeled blood vessels (CAA), cortical area covered",TgCRND8 mice [1]; 100 mg/Kg/d (vehicle 1.44±0.17%),0.89%±0.02
same,reduction in ThioS-positive fibrillar Aβ,TgCRND8 mice [1]; 100 mg/kg/d,51%
same,probe trial: time spent in the target quadrant,TgCRND8 mice [2]; 25 and 100 mg/kg/d vs vehicle-treated TgCRND8,highest duration; also recorded: prevent decrease in the time spent in the target quadrant
same,probe trial: spatial bias,"TgCRND8 mice [2]; BBR 25 mg/Kg, all probe trials",significantly increases their spatial bias
same,hidden platform path distance (swim path),TgCRND8 mice [2]; low and high doses of BBR (25 and 100 mg/kg/d) vs vehicle-treated TgCRND8,significantly reduced swim path; also recorded: reduced the path distance; also recorded: show a reduction in swimming distance
same,GFAP burden (astrocytosis) reduced to % relative to vehicle-treated,TgCRND8 mice [3]; 25 mg/Kg,54%
same,Iba-1 burden (microgliosis) reduced to % relative to vehicle-treated,TgCRND8 mice [3]; 25 mg/Kg/d,45%
same,GFAP burden (astrocytosis) reduced to % relative to vehicle-treated,TgCRND8 mice [3]; 100 mg/Kg,28%
same,Iba-1 burden (microgliosis) reduced to % relative to vehicle-treated,TgCRND8 mice [3]; 100 mg/Kg/d,27%
same,decrease in astrocytosis,TgCRND8 mice [3]; [7],54%
same,reduction in microgliosis,TgCRND8 mice [3]; [7],45%
same,cell viability (MTT),N2a-SwedAPP cells [4],did not affect cell viability
same,pAPP staining in the endosomal compartments,N2a-SwedAPP cells [5],markedly reduced
same,IC50,Aβ1-42 fibril formation; in vitro,23.5 µM
same,effective in vitro concentration (approximately 20 μM) relative to brain levels,Aβ1-42 fibril formation; printed as 'times less than those found in the brain',23 times
same,"diminution of Aβ1-40, SDS-soluble fraction",TgCRND8 mice [6]; 25 mg/Kg/d,44%
same,"reduction of Aβ1-40, formic acid extractable fraction",TgCRND8 mice [6]; 25 mg/Kg/d,49%
same,"reduction of Aβ1-42, formic acid extractable fraction",TgCRND8 mice [6]; 25 mg/Kg/d,44%
same,"diminution of Aβ1-40, SDS-soluble fraction",TgCRND8 mice [6]; 100 mg/Kg/d,32%
same,"reduction of Aβ1-40, formic acid extractable fraction",TgCRND8 mice [6]; 100 mg/Kg/d,54%
same,"reduction of Aβ1-42, formic acid extractable fraction",TgCRND8 mice [6]; 100 mg/Kg/d,39%
same,"Aβ1-42, SDS-soluble fraction",TgCRND8 mice [6]; BBR treatments (25 and 100 mg/Kg/d),slight reduction
same,reduction of total extracted Aβ40,TgCRND8 mice [6]; [8],44-49%
same,reduction of total extracted Aβ42,TgCRND8 mice [6]; [8],22-43%
